Among the data in patent US7420056B2, “Substituted bicyclic imidazo-3-ylamine compounds” (Gruenenthal GmbH, priority 2004, dated 2008) are inhibition and IC50 values, retold here.

Counter-ions that a name gives are not always drawn.

mGluR5 receptor, sequence (I3LUI7 19-1212): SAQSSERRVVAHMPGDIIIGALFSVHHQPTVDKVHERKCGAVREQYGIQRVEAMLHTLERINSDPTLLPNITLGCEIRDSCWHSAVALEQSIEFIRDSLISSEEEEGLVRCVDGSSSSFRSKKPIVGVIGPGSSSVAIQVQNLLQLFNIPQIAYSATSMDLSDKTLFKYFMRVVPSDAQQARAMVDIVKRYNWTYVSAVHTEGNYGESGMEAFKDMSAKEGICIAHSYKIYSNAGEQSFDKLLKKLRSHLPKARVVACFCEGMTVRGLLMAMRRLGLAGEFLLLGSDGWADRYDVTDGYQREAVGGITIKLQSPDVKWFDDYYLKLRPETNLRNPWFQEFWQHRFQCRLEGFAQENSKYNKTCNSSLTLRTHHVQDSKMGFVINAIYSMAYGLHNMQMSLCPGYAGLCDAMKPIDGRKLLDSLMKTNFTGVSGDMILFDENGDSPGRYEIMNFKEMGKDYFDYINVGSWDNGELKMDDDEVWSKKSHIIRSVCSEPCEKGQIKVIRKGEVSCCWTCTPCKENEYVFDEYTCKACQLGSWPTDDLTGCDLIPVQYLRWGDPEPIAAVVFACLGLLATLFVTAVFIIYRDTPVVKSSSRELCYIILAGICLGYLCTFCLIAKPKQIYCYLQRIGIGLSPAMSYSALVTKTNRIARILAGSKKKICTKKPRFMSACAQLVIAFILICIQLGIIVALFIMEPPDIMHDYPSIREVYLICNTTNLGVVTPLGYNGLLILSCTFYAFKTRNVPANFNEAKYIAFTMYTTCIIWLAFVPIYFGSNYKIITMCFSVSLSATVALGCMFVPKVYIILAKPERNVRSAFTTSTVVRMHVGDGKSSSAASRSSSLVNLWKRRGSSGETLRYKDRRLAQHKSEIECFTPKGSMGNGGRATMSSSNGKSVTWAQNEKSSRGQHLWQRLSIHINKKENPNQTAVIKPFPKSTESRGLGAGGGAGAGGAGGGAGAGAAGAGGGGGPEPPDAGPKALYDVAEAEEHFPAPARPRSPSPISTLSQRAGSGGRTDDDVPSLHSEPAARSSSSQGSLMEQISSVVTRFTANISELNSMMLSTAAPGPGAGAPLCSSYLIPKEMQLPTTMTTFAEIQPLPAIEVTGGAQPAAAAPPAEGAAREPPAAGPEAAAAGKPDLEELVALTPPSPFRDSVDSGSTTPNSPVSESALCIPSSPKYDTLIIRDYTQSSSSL

For the first assay, the target named is mGluR5 receptor (Sus scrofa, UniProt I3LUI7). The assay can be described thus: Affinity for the mGluR5 receptor: inhibition of 3[H]-MPEP binding in pig brain homogenate. Particulars: 10 μM compound, 5 nM 3[H]-MPEP, read-out: mGluR5 receptor inhibition of ^3[H]-MPEP binding [10 μM] in % at a concentration of the example compounds of 10 μM. The method in brief:
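Pig brain membranes (450 μg protein; hemispheres without medulla, cerebellum and pons) in 30 mM Hepes pH 8.0 were incubated 60 min at room temperature with 5 nM [3H]-MPEP and compound at 10 μM. Bound radioactivity was filtered and counted. Nonspecific binding was defined with 10 μM MPEP.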
With `Cc1cc(Br)c2nc(-c3ccc(C#Cc4ccccn4)cc3)c(NC3CCCC3)n2c1` [Example 250, 8-bromo-N-cyclopentyl-6-methyl-2-(4-(pyridin-2-ylethynyl)phenyl)imidazo[1,2-a]pyridin-3-amine], the inhibition at 10 µM is 69%.
The same measure, in the same setting: under `Cc1ccn2c(NC(C)(C)CC(C)(C)C)c(-c3ccc(C#Cc4ccccn4)s3)nc2c1` [Example 275, 7-methyl-2-(5-(pyridin-2-ylethynyl)thiophen-2-yl)-N-(2,4,4-trimethylpentan-2-yl)imidazo[1,2-a]pyridin-3-amine] stands 85%; under `C(#Cc1ccc(-c2nc3cnccn3c2NC2CCCC2)s1)c1ccccc1` [Example 1, cyclopentyl-[2-(5-phenylethynyl-thiophen-2-yl)-imidazo[1,2-a]pyrazin-3-yl]-amine], 52%.
Turning to `Cc1cccn2c(NCC3CCCCC3)c(-c3ccc(C#Cc4ccccc4)s3)nc12` [Example 5, cyclohexylmethyl-[8-methyl-2-(5-phenylethynyl-thiophen-2-yl)-imidazo[1,2-a]pyridin-3-yl]-amine], the inhibition at 10 µM is 100%.
The same measure, in the same setting: under `CC(C)(C)Nc1c(-c2ccc(C#Cc3ccccc3)nc2)nc2ccccn12` [Example 282, N-tert-butyl-2-(6-(phenylethynyl)pyridin-3-yl)imidazo[1,2-a]pyridin-3-amine] stands 72%; under `Cc1cc(C)n2c(NC(C)(C)C)c(-c3ccc(C#Cc4ccccn4)o3)nc2n1` [Example 295, N-tert-butyl-5,7-dimethyl-2-(5-(pyridin-2-ylethynyl)furan-2-yl)imidazo[1,2-a]pyrimidin-3-amine], 84%.
Consider `COc1ccccc1CNc1c(-c2ccc(C#Cc3ccccc3)o2)nc2cnccn12` [Example 207, N-(2-methoxybenzyl)-2-(5-(phenylethynyl)furan-2-yl)imidazo[1,2-a]pyrazin-3-amine], for which the inhibition at 10 µM amounted to 35%.
The same measure, in the same setting: under `Cc1cc(C)n2c(NCC3CCCCC3)c(-c3ccc(C#Cc4ccccc4)s3)nc2c1` [Example 6, cyclohexylmethyl-[5,7-dimethyl-2-(5-phenylethynyl-thiophen-2-yl)-imidazo[1,2-a]pyridin-3-yl]-amine] stands 92%; under `Cc1cc(C)n2c(NC3CCCC3)c(-c3ccc(C#Cc4ccccn4)o3)nc2n1` [Example 294, N-cyclopentyl-5,7-dimethyl-2-(5-(pyridin-2-ylethynyl)furan-2-yl)imidazo[1,2-a]pyrimidin-3-amine], 79%; under `CC(C)(C)Nc1c(-c2ccc(C#Cc3ccccn3)o2)nc2ccc(Cl)cn12` [Example 316, N-tert-butyl-6-chloro-2-(5-(pyridin-2-ylethynyl)furan-2-yl)imidazo[1,2-a]pyridin-3-amine], 55%.
The same measure, in the same setting: the same measure for `Cc1cccc(C#Cc2cccc(-c3nc4ccc(Cl)cn4c3NC3CCCCC3)c2)n1` [Example 193, 6-chloro-N-cyclohexyl-2-(3-((6-methylpyridin-2-yl)ethynyl)phenyl)imidazo[1,2-a]pyridin-3-amine]: 79%; for `COc1cccc(Nc2c(-c3ccc(C#Cc4ccccc4)s3)nc3c(OCc4ccccc4)cccn23)c1` [Example 20, [8-benzyloxy-2-(5-phenylethynyl-thiophen-2-yl)-imidazo[1,2-a]pyridin-3-yl]-(3-methoxy-phenyl)-amine]: 79%; for `CC(Nc1c(-c2cc(C#Cc3ccccc3)cs2)nc2cnccn12)c1ccccc1` (centres unmarked) [Example 213, N-(1-phenylethyl)-2-(4-(phenylethynyl)thiophen-2-yl)imidazo[1,2-a]pyrazin-3-amine]: 84%.
Consider `COc1cccc(CCNc2c(-c3cc(C#Cc4ccccc4)cs3)nc3cnccn23)c1` [Example 202, N-(3-methoxyphenethyl)-2-(4-(phenylethynyl)thiophen-2-yl)imidazo[1,2-a]pyrazin-3-amine], for which the inhibition at 10 µM turned out to be 70%.
On the same count and under the same terms, under `Cc1nc(C#Cc2ccccc2)ccc1-c1nc2ccccn2c1NC1CCCC1` [Example 265, N-cyclopentyl-2-(2-methyl-6-(phenylethynyl)pyridin-3-yl)imidazo[1,2-a]pyridin-3-amine] stands 68%; under `COc1cccc(CCNc2c(-c3ccc(C#Cc4ccccc4)s3)nc3nc(C)cc(C)n23)c1` [Example 195, N-(3-methoxyphenethyl)-5,7-dimethyl-2-(5-(phenylethynyl)thiophen-2-yl)imidazo[1,2-a]pyrimidin-3-amine], 53%; under `CC(C)(C)CC(C)(C)Nc1c(-c2ccc(C#Cc3ccccc3)s2)nc2c(OCc3ccccc3)cccn12` [Example 218, 8-(benzyloxy)-2-(5-(phenylethynyl)thiophen-2-yl)-N-(2,4,4-trimethylpentan-2-yl)imidazo[1,2-a]pyridin-3-amine], 38%.

Still in this assay, the particulars now being: 3[H]-MPEP binding.
Take `Cc1ccccc1C#Cc1ccc(-c2nc3cnccn3c2NC(C)(C)C)s1` [Example 162, N-tert-butyl-2-(5-(o-tolylethynyl)thiophen-2-yl)imidazo[1,2-a]pyrazin-3-amine hydrochloride]: the IC50 came out at 4240 nM.
Same read-out and setting: the same measure for `CC(C)(C)Nc1c(-c2ccc(C#Cc3cccc(OC(F)(F)F)c3)s2)nc2cnccn12` [Example 333, tert-butyl-{2-[5-(3-trifluoromethoxy-phenylethynyl)-thiophen-2-yl]-imidazo[1,2-a]pyrazin-3-yl}-amine]: 420 nM; for `CC(C)(C)Nc1c(-c2ccc(C#Cc3cccnc3)s2)nc2cnccn12` [Example 82, tert-butyl-[2-(5-pyridin-3-ylethynyl-thiophen-2-yl)-imidazo[1,2-a]pyrazin-3-yl]-amine]: 200 nM.
Turning to `COc1cccc(C#Cc2ccc(-c3nc4cnccn4c3NC(C)(C)C)s2)c1` [Example 113, N-tert-butyl-2-(5-((3-methoxyphenyl)ethynyl)thiophen-2-yl)imidazo[1,2-a]pyrazin-3-amine hydrochloride], the IC50 turned out to be 75 nM.
Consider `CC(C)(C)Nc1c(-c2ccc(C#Cc3ccc(N)nc3)s2)nc2cnccn12` [Example 128, 2-(5-((6-aminopyridin-3-yl)ethynyl)thiophen-2-yl)-N-tert-butylimidazo[1,2-a]pyrazin-3-amine hydrochloride], for which the IC50 turned out to be 15600 nM.
Still for that read-out and setting: the same measure for `COc1cccnc1C#Cc1ccc(-c2nc3ccccn3c2NC(C)(C)C)s1` [Example 342, N-tert-butyl-2-(5-((3-methoxypyridin-2-yl)ethynyl)thiophen-2-yl)imidazo[1,2-a]pyridin-3-amine]: 1360 nM; for `COC(=O)CNc1c(-c2ccc(C#Cc3ccccc3)s2)nc2cnccn12` [Example 75, [2-(5-phenylethynyl-thiophen-2-yl)-imidazo[1,2-a]pyrazin-3-ylamino]-acetic acid methyl ester]: 1290 nM; for `Cc1ccc(C#Cc2ccc(-c3nc4ccccn4c3NC(C)(C)C)s2)nc1` [Example 339, tert-butyl-{2-[5-(5-methyl-pyridin-2-ylethynyl)-thiophen-2-yl]-imidazo[1,2-a]pyridin-3-yl}-amine hydrochloride]: 320 nM.
In turn, `CC(C)(C)Nc1c(-c2ccc(C#Cc3ncccn3)s2)nc2ccccn12` [Example 325, tert-butyl-[2-(5-pyrimidin-2-ylethynyl-thiophen-2-yl)-imidazo[1,2-a]pyridin-3-yl]-amine hydrochloride] had an IC50 of 13 nM.
On the same count and under the same terms, under `CC(C)(C)Nc1c(-c2ccc(C#Cc3cccc(CO)c3)s2)nc2ccccn12` [Example 341, {3-[5-(3-tert-butylamino-imidazo[1,2-a]pyridin-2-yl)-thiophen-2-ylethynyl]-phenyl}-methanol hydrochloride] stands 240 nM; under `Nc1c(-c2ccc(C#Cc3ccccn3)s2)nc2cnccn12` [Example 134, 2-(5-(pyridin-2-ylethynyl)thiophen-2-yl)imidazo[1,2-a]pyrazin-3-amine hydrochloride], 570 nM; under `CC(C)CNc1c(-c2ccc(C#Cc3ccccc3)s2)nc2cnccn12` [Example 71, (2-methylpropyl)-[2-(5-phenylethynyl-thiophen-2-yl)-imidazo[1,2-a]pyrazin-3-yl]-amine], 1270 nM.
Turning to `C=Cc1cccc(C#Cc2ccc(-c3nc4cnccn4c3NC(C)(C)C)s2)c1` [Example 184, N-tert-butyl-2-(5-((3-vinylphenyl)ethynyl)thiophen-2-yl)imidazo[1,2-a]pyrazin-3-amine], the IC50 was determined as 270 nM.
The same measure, in the same setting: under `CC(C)Nc1c(-c2ccc(C#Cc3ccccc3)s2)nc2cnccn12` [Example 109, N-isopropyl-2-(5-(phenylethynyl)thiophen-2-yl)imidazo[1,2-a]pyrazin-3-amine] stands 300 nM.
On the same count and under the same terms, under `CC(C)(C)Nc1c(-c2ccc(C#Cc3cccc(C=O)c3)s2)nc2cnccn12` [Example 178, 3-((5-(3-(tert-butylamino)imidazo[1,2-a]pyrazin-2-yl)thiophen-2-yl)ethynyl)benzaldehyde] stands 24 nM; under `CC(C)(C)Nc1c(-c2ccc(C#Cc3ccccc3O)s2)nc2cnccn12` [Example 153, 2-((5-(3-(tert-butylamino)imidazo[1,2-a]pyrazin-2-yl)thiophen-2-yl)ethynyl)phenol], 2990 nM; under `CC(C)(C)Nc1c(-c2ccc(C#Cc3c[nH]cn3)s2)nc2cnccn12` [Example 185, 2-(5-((1H-imidazol-4-yl)ethynyl)thiophen-2-yl)-N-tert-butylimidazo[1,2-a]pyrazin-3-amine hydrochloride], 190 nM.
The same measure, in the same setting: the same measure for `Cc1cc(-c2nc3cnccn3c2NC(C)(C)C)sc1C#Cc1ccccn1` [Example 164, N-tert-butyl-2-(4-methyl-5-(pyridin-2-ylethynyl)thiophen-2-yl)imidazo[1,2-a]pyrazin-3-amine hydrochloride]: 54 nM.

In general, IC50 refers to the concentration that inhibits the measured activity by half. A low value points to higher potency.
